Measured values reported in PMC5603853, “Physicochemical, Stress Degradation Evaluation and Pharmacokinetic Study of AZGH102, a New Synthesized COX2 Inhibitors after I.V. and Oral Administration in Male and Female Rats” (Iranian Journal of Pharmaceutical Research : IJPR, 2017).
Values after ≈ are worked out from the molar mass of the structure shown. Read-outs that look alike come from different tables or passages of the source.

Columns and labels:
[1] = Aqueous solubility (OECD Guideline No. 105); type: physicochemical; conditions: thermodynamic from solid; water; 3 replications
Procedure: (§1) Melting point was determined with an Electrothermal 9200 apparatus (UK). Moreover, aqueous solubility and octanol/water partition coefficient of the synthesized derivative was determined according to Organisation for Economic Co-operation and Development (OECD) Guideline for Testing of Chemicals, No.105 and No. 107, respectively ([6]-[8]).

[2] = Octanol/water partition coefficient (OECD Guideline No. 107); type: physicochemical; conditions: 3 replications, read-out: log P (logarithm of octanol/water partition coefficient)
Procedure: as §1

[3] = Forced degradation stability study (ICH guideline); type: physicochemical; set-up: Forced tests results, Mean ±SD: unit not given here; conditions: for Forced tests results, Mean ±SD: n=3
Procedure: The stability study was conducted according to forced degradation protocol ICH guideline for new drug substance ([9]-[11]). The study evaluated the stability of AZGH 102 at acidic, basic, and neutral medium. Moreover, the effect of oxidative condition (H2O2, 3 and 30%), thermal degradation at solid state and photolysis on the stability of AZGH 102 was evaluated.

[4] = Pharmacokinetic study after oral administration; type: in vivo; conditions: for Cl / Ka / Vd / α (distribution rate constant) / AUC(0-inf) / Cmax / Tmax / half-life / k el: oral 20 mg/Kg; for bioavailability / AUC(0-inf) / Cmax / Tmax / half-life / k el: rat, plasma; for bioavailability: oral 20 mg/Kg vs IV 10 mg/Kg, read-out: F (absolute bioavailability); for half-life: read-out: t1/2 β (converted); for k el: read-out: β (elimination rate constant) (converted)
Procedure: (§2) Male and female Wistar rats weighting 250 ± 10 g were used. They were housed in animal center of author’s institute. Each rat was housed in a cage which was kept at 25 ± 1 °C temperature and controlled humidity with 12 h light/dark cycle. Animals were fasted overnight before the experiment and had free access to water. The study protocol was approved by the local ethics committee for animal experiments of Shahid Beheshti University of Medical Sciences (Tehran, Iran).
(§3) The rats (12 male and 12 female) were randomly divided into four groups (6 rats/group) and assigned to receive AZGH 102 solution via intravenous (IV) and/or oral administration. The administered doses in both male and female groups for IV and oral studies were 10 mg/Kg and 20 mg/Kg, respectively. Blood samples were collected from the tail vein immediately prior to (blank sample) and at 0.08, 0.25, 0.5, 1, 2, 4, 6, 8, 10, 21 and 22 h after drug administration into heparinized micro-tubes. Blood samples were centrifuged at 1000 g for 10 min and the separated plasma samples were kept at – 20 °C until analysis.
(§4) Two-compartmental model was selected and pharmacokinetic analyses were performed using WinNonlin software (Pharsight Corporation, Mountain View, USA, Version 3.2). The following pharmacokinetic parameters were estimated: terminal elimination half-life (t1/2), area under the plasma concentration versus time curve from zero to the infinity (AUC 0-∞), distribution and elimination rate constants (α, β), y intercepts (A, B), volume of distribution (Vd), and total body clearance (CL). The peak plasma concentration (Cmax) and the time to reach Cmax (Tmax) for oral dose were obtained directly from the observed individual plasma concentration-time data.

[5] = Pharmacokinetic study after intravenous administration; type: in vivo; conditions: intravenous 10 mg/Kg; for AUC(0-inf) / C0 / Vd / clearance / half-life / k el: rat, plasma; for half-life: read-out: t1/2 β (converted); for k el: read-out: β (elimination rate constant) (converted)
Procedure: as §2, §3, §4

[6] = tested on: COX-2; conditions: in comparison with celecoxib; cited from earlier work

CS(=O)(=O)c1ccc(-c2cc(C(=O)O)c3cccc(C(=O)c4ccccc4)c3n2)cc1 [AZGH 102, 8-benzoyl-2-(4-(methylsulfonyl)phenyl)quinoline-4-carboxylic acid]
solubility [1]: 2.7 ± 0.09 µg/mL (≈ 6.26 µM)
logP [2]: 3.75 ± 0.001
Forced tests results, Mean ±SD ([3]; Hydrolysis (Acid), fraction recovered intact): 0.94±0.02
Forced tests results, Mean ±SD ([3]; Hydrolysis (Base)): 0.92±0.01
Forced tests results, Mean ±SD ([3]; Hydrolysis (Buffer pH=7)): 0.95±0.04
Forced tests results, Mean ±SD ([3]; Oxidative stress (H2O2-3%)): 0.94±0.02
Forced tests results, Mean ±SD ([3]; Oxidative stress (H2O2-30%)): 0.90±0.04
Forced tests results, Mean ±SD ([3]; Photodegradation (Acid)): 0.93±0.02
Forced tests results, Mean ±SD ([3]; Photodegradation (Base)): 0.96±0.04
Forced tests results, Mean ±SD ([3]; Photodegradation (Buffer pH=7)): 0.93±0.02
Forced tests results, Mean ±SD ([3]; Thermal Degradation (solid phase)): 0.95±0.03
recovered intact ([3]; in all of the examined stress conditions): more than 90%
Cl ([4]; female Wistar rats): 29.15 ± 0.47 mL/h
Ka ([4]; female Wistar rats): 1.26 ± 0.34 h⁻¹
Vd ([4]; female Wistar rats): 156.27 ± 4.54 mL
α (distribution rate constant) ([4]; female Wistar rats): 3.70 ± 1.56 h⁻¹
Cl ([4]; male Wistar rats): 27.47 ± 1.81 mL/h
Ka ([4]; male Wistar rats): 0.69 ± 0.15 h⁻¹
Vd ([4]; male Wistar rats): 147.04 ± 9.43 mL
α (distribution rate constant) ([4]; male Wistar rats): 5.79 ± 2.33 h⁻¹
bioavailability ([4]; female Wistar rats): 25.6 ± 0.4%
bioavailability ([4]; male Wistar rats): 27 ± 1.85%
AUC(0-inf) ([4]; female Wistar rats): 43900 ± 710 ng·h/mL
Cmax ([4]; female Wistar rats): 16500 ± 1050 ng/mL
Tmax ([4]; female Wistar rats): 30 min
half-life ([4]; female Wistar rats): 223 ± 6 min
k el ([4]; female Wistar rats): 5.28e-05 s⁻¹
AUC(0-inf) ([4]; male Wistar rats): 49300 ± 3380 ng·h/mL
Cmax ([4]; male Wistar rats): 19600 ± 1960 ng/mL
Tmax ([4]; male Wistar rats): 30 min
half-life ([4]; male Wistar rats): 223 ± 9.6 min
k el ([4]; male Wistar rats): 5.28e-05 s⁻¹
α (distribution rate constant) ([5]; female Wistar rats): 3.87 ± 1.11 h⁻¹
α (distribution rate constant) ([5]; male Wistar rats): 2.98 ± 0.67 h⁻¹
AUC(0-inf) ([5]; female Wistar rats): 85800 ± 9230 ng·h/mL
C0 ([5]; female Wistar rats): 100 ± 14.1 µg/mL
Vd ([5]; female Wistar rats): 0.101 ± 0.0137 L
clearance ([5]; female Wistar rats): 0.491 mL/min
half-life ([5]; female Wistar rats): 143 ± 7.2 min
k el ([5]; female Wistar rats): 0.00015 s⁻¹
AUC(0-inf) ([5]; male Wistar rats): 91300 ± 17100 ng·h/mL
C0 ([5]; male Wistar rats): 113 ± 7.99 µg/mL
Vd ([5]; male Wistar rats): 0.0997 ± 0.0152 L
clearance ([5]; male Wistar rats): 0.47 mL/min
half-life ([5]; male Wistar rats): 134 ± 44.4 min
k el ([5]; male Wistar rats): 8.06e-05 s⁻¹
selectivity index (COX-1/COX-2 inhibitory potency) [6]: improved selectivity index
